This note sets out measurements from patent US8088812B2, “Sigma receptor inhibitors” (Laboratorios Del Dr. Esteve, S.A., priority 2006, dated 2012).

One data set addresses T1, σ1-receptor (Cavia porcellus, UniProt Q60492).
T1 construct: guinea pig brains are homogenized; from tissue; host or cells: guinea pig brain membranes
The data set is described as follows: Sigma-1 receptor binding assay, [3H](+)-pentazocine, brain membranes. The note with it: guinea pig brain membranes. As for the experimental part: Brain membrane preparation and binding assays for the σ1-receptor are performed as described (DeHaven-Hudkins et al., 1992) with some modifications. In brief, guinea pig brains are homogenized in 10 vols. (w/v) of Tris-HCl 50 mM 0.32 M sucrose, pH 7.4, with a Kinematica Polytron PT 3000 at 15000 r.p.m. for 30 s. The homogenate is centrifuged at 1000 g for 10 min at 4° C. and the supernatants collected and centrifuged again at 48000 g for 15 min at 4° C. The pellet is resuspended in 10 volumes of Tris-HCl buffer (50 mM, pH 7.4), incubated at 37° C. for 30 min, and centrifuged at 48000 g for 20 min at 4° C. Following this, the pellet is resuspended in fresh Tris-HCl buffer (50 mM, pH 7.4) and stored on ice until use.
Each assay tube contains 10 μL of [^3H](+)-pentazocine (final concentration of 0.5 nM), 900 μL of the tissue suspension to a final assay volume of 1 mL and a final tissue concentration of approximately 30 mg tissue net weight/mL. Non-specific binding is defined by addition of a final concentration of 1 μM haloperidol. All tubes are incubated at 37° C. for 150 min before termination of the reaction by rapid filtration over Schleicher & Schuell GF 3362 glass fibre filters [previously soaked in a solution of 0.5% polyethylenimine for at least 1 h]. Filters are then washed four times with 4 mL of cold Tris-HCl buffer (50 mM, pH 7.4). Following addition of scintillation cocktail, the samples are allowed to equilibrate overnight. The amount of bound radioactivity is determined by liquid scintillation spectrometry using a Wallac Winspectral 1414 liquid scintillation counter. Protein concentrations are determined by the method of Lowry et al. (1951).

In data set [1] the test system is capsaicin-induced allodynia. Put plainly: Von Frey filaments in a model of capsaicin-induced allodynia. It is filed as in vivo. The note with it: mice, percent analgesia compared to control, mechanical stimulus after capsaicin injection into paw. The method, then: This model is described in detail in the experimental part of WO 2006/010587 A1, examples 1 and 2, the description being included here by reference. Capsaicin is thereby injected into experimental animals to produce acute pain followed by allodynia.
Briefly after habituation mice were first treated with the test-compound (or not in controls). Then capsaicin (1% DMSO) is injected into their paw resulting in developing pain in the effected paw. The effected paw is then treated with a mechanical stimulus and the latency time before the paw is withdrawn is measured.
The results obtained for examples 5, 6 and 8 are shown in table (II) as percent analgesia compared to control achieved at […] 16 mg/kg i.p.

In general, melting point refers to the temperature of the solid-liquid transition. As a reminder, the Ki is a dissociation constant, usually derived from enzyme kinetics or from competition with a known ligand. Read a high Ki as a looser hold on the target.

T1 sequence (Q60492 whole entry): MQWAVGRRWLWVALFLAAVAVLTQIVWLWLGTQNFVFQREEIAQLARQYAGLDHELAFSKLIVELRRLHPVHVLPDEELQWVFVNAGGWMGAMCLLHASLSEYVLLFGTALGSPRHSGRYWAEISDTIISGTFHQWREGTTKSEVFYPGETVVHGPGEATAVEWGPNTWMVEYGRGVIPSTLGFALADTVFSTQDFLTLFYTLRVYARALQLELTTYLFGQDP

Turning to `CCN(CC)CCOc1ccn(C(C)(C)C)n1.O=C(O)C(=O)O`, the melting point lay in the range of 96 to 98 °C. The same measure, in the same setting: for `CC(C)(C)n1ccc(OCCN2CCCC2)n1.O=C(O)C(=O)O` [Example 4, 1-tert-butyl-3-[2-(pyrrolidin-1-yl)ethoxy]-1H-pyrazole oxalate] the value was 82 to 88 °C. `O=C(O)C(=O)O.c1ccc(C2CCN(CCOc3ccn(C4CCCCC4)n3)CC2)cc1` [Example 11, 1-(2-(1-Cyclohexyl-1H-pyrazol-3-yloxy)ethyl)-4-phenylpiperidine oxalate] yielded a melting point of 122 to 128 °C. Moreover, on σ1-receptor, affinity was put at a Ki of 8.6 nM.

Compound `O=C(O)C(=O)O.c1cn(C2CCCCC2)nc1OCCN1CCCCC1` [Example 6, 1-(2-(1-cyclohexyl-1H-pyrazol-3-yloxy)ethyl)piperidine oxalate] had a melting point of 105 to 110 °C. This compound came in with a Ki at σ1-receptor of 1 ± 0.3 nM. Moreover, in data set [1], the “Analgesia (16 mg/kg), i.p. %” value worked out at 70%. For `O=C(O)C(=O)O.c1cn(C2CCCCC2)nc1OCCN1CCOCC1` [Example 5, 4-(2-(1-cyclohexyl-1H-pyrazol-3-yloxy)ethyl)morpholine oxalate] the same measures were 135 to 140 °C, 4.1 ± 0.1 nM and 20%. Compound `CCN(CC)CCOc1ccn(C2CCCCC2)n1.O=C(O)C(=O)O` [Example 7, 2-(1-cyclohexyl-1H-pyrazol-3-yloxy)-N,N-diethylethanamine oxalate] registered a melting point of 85 to 90 °C. `O=C(O)C(=O)O.c1cn(C2CCCCC2)nc1OCCN1CCCC1` [Example 8, 1-Cyclohexyl-3-(2-(pyrrolidin-1-yl)ethoxy)-1H-pyrazole oxalate]: the melting point lay within 117 to 119 °C. Also, the inhibition constant (Ki) at σ1-receptor was 2.5 nM. In data set [1], the “Analgesia (16 mg/kg), i.p. %” value is listed as 65%. For `CC(C)(C)n1ccc(OCCN2CCCCC2)n1.O=C(O)C(=O)O` [Example 2, 1-[2-(1-tert-butyl-1H-pyrazol-3-yloxy)ethyl]piperidine oxalate], the melting point is 123 to 126 °C.
